Test results from patent US7169568B2, “Method for screening molecules that exert a neurotrophic effect through activation of neurotrophin receptors” (New York University, priority 2000, dated 2007).
“Also recorded” adds a separate entry of the source.

Experiments:
[1] = test system: TrkA receptors; assay: TrkA receptor tyrosine phosphorylation in PC12 (615) cells (anti-pan-Trk immunoprecipitation, PY99 anti-phosphotyrosine immunoblot); assay type: cell-based; conditions: PC12 (615) cells
Method: Stably transfected PC12 cells expressing high levels of TrkA (615) were treated with the indicated compounds for 2 hours. The cells were subsequently harvested in lysis buffer as described in the Materials and Methods of Example 1. Lysates were immunoprecipitated with anti-pan Trk rabbit antiserum. Immunocomplexes were analyzed by immunoblotting with anti-phosphotyrosine antibody (PY99).
In FIG. 2A, different concentrations of adenosine were administered to PC12615 cells for 2 hours or NGF (1 ng/ ml) for 10 min. Cells were also treated with CGS21680 at the indicated dose for 2 hours. In FIG. 2B, PC12 cells (615) were treated with adenosine (10 μM) for various times or with 5 ng/ml NGF for 10 min. Phosphorylated TrkA receptors were detected by immunoblot analysis using PY99 anti-phosphotyrosine antibodies. The amount of Trk receptors in each condition was verified by immunoblotting.
In FIG. 3A, PC12 cells (615) were treated with the A2A agonist CGS 21680 (10 nM) and an A1 agonist CPA (10 nM) for 2 hr. ZM 241385 (10 nM), an A2A antagonist, was incubated with the cells for 15 min prior to treatment with adenosine (10 μM) for 2 hours. In FIG. 3B, PC12 cells (615) were incubated with the indicated concentrations of PP1, a Src family kinase inhibitor (Hanke et al, 1996), for 30 min, and then treated with adenosine (10 μM) for 2 hours. Activation of TrkA was assessed by immunoprecipitation and immunoblot analysis using PY99 anti-phosphotyrosine antibody.
In FIG. 7A, different concentrations of PACAP27 were administered to PC12 (615) cells for 2 hours or NGF (5 ng/ml) for 10 min. […] Phosphorylated TrkA receptors were detected by immunoblot analysis using PY99 anti-phosphotyrosine antibodies. The level of Trk receptors for each condition was verified by immunoblotting with anti-Trk antibodies.
Immunoprotection and Immunoblotting. PC12 cells or PC12-615 cells (Hempstead et al, 1992), were maintained in Dulbecco's Modified Eagle's Medium (DMEM) containing 10% fetal bovine serum (FBS) supplemented with 100 units/ml penicillin, 100 μg/ml streptomycin, and 2 mM glutamine plus 200 μg/ml G418. Cells were placed in low serum medium (1% FBS, 0.5% horse serum) overnight prior to experiments. Cell lysates from PC12, 615 cells, or hippocampal cells were incubated in lysis buffer (1% NP40) for 4 hours to overnight at 4° C. with anti-pan-Trk polyclonal antibody, followed by incubation with protein A-Sepharose beads. Equivalent amounts of protein were analyzed for each condition. The beads' were washed five times with lysis buffer and the immune complexes were boiled in SDS-sample buffer and loaded on sodium dodecyl sulfate-polyacrylamide electrophoresis (SDS-PAGE) gels for immunoblot analysis. The immunoreactive protein bands were detected by ECL reagents based upon enhanced chemiluminescence procedure (Amersham Pharmacia).
Immunoprecipitated and Immunoblotting. PC12 (615) cells were maintained in DMEM containing 10% FBS supplemented with 100 units/ml penicillin, 100 μg/ml streptomycin, and 2 mM glutamine plus 200 μg/ml G418. Cells were placed in serum free medium overnight before experiments. Cell lysates from PC12(615) cells, or basal forebrain cells were incubated in lysis buffer (1% Nonidet P-40) for 4 hrs to overnight at 4° C. with anti-pan-Trk polyclonal antibody followed by incubation with protein A-Sepharose beads. Equivalent amounts of protein were analyzed for each condition.

[2] = test system: NGF-differentiated PC12 cells; assay: Cell death assay (LDH release), NGF-differentiated PC12 cells after NGF and serum withdrawal; assay type: cell-based; conditions: one-time treatment, 48 hours in the absence of NGF, LDH release
Method: FIGS. 6A and 6B show graphs on the trophic effects of adenosine in PC12 and hippocampal cells deprived of neurotrophins. In FIG. 6A, NGF-differentiated PC12 cells were prepared and then NGF and serum were withdrawn for 48 hours as described in the Materials and Methods section of Example 1. Upon NGF withdrawal, various concentrations of CGS 21680 (CGS) were added to the media. CON =No Addition. […] In FIG. 6B, hippocampal neurons were prepared and B27 was withdrawn for 48 hrs as described in the Materials and Methods section of Example 1. Upon B27 withdrawal, various concentrations of CGS 21680 (CGS) were added to the media. […] All LDH levels were quantitated and % cell death calculated as described in the Materials and Methods section of Example 1. All bars depict mean+SEM from three independent experiments.
Cell Death Assay. PC12 cells were differentiated in Dulbecco's modified Eagle's medium (DMEM), supplemented with 0.33% fetal bovine serum, 0.67% heat-inactivated horse serum, 2 mM L-glutamine and NGF (50 ng/ml) for 7 days. Serum and NGF were then removed, and adenosine agonists or growth factors added to the media. After 48 hrs, cell death was quantified by measuring lactate dehydrogenase (LDH) released from injured cells into the media using the Cytox 96 Cytotoxicity Assay Kit (Promega, Madison, Wis.). LDH values were normalized by subtracting the LDH released by cells maintained in NGF (50 ng/ml) and scaling to a full kill (=100%) reference induced by 5 min treatment with 1% Triton, an exposure that consistently killed all PC12 cells.

[3] = target: TrkA (Homo sapiens, UniProt P04629); assay: 125I-NGF equilibrium binding, PC12 cells stably overexpressing TrkA; parameters: expressed in transfected cells; conditions: for Displacement of 125I-NGF binding: PC12 cells overexpressing TrkA, adenosine 1 mM, CGS 21680 1 μM; for Specific Binding of 125I-NGF: 30 minutes at 25° C., control 14316 +/− 350
Method: ^125I-NGF Binding Analysis. For equilibrium binding studies, ^125I-NGF was prepared as described previously (Hempstead et al, 1989). PC12 cells stably overexpressing TrkA (2×10^5 cells) and HEK 293 cells expressing TrkA (2×10^5) were incubated with ^125I-NGF in the absence and presence of adenosine compounds for 30 minutes at 25° C. The cells were then washed twice with PBS, and ^125I-NGF stripped with an acid solution (0.2 M acetic acid, 0.5 M NaCl). Nonspecific binding was assessed by adding unlabeled NGF at a final concentration of 1000 ng/ml and represented less than 20% of total binding. Specific binding was defined as total binding minus nonspecific binding. All conditions were carried out in triplicate and SEM calculated.

Sequence of TrkA (P04629 33-796): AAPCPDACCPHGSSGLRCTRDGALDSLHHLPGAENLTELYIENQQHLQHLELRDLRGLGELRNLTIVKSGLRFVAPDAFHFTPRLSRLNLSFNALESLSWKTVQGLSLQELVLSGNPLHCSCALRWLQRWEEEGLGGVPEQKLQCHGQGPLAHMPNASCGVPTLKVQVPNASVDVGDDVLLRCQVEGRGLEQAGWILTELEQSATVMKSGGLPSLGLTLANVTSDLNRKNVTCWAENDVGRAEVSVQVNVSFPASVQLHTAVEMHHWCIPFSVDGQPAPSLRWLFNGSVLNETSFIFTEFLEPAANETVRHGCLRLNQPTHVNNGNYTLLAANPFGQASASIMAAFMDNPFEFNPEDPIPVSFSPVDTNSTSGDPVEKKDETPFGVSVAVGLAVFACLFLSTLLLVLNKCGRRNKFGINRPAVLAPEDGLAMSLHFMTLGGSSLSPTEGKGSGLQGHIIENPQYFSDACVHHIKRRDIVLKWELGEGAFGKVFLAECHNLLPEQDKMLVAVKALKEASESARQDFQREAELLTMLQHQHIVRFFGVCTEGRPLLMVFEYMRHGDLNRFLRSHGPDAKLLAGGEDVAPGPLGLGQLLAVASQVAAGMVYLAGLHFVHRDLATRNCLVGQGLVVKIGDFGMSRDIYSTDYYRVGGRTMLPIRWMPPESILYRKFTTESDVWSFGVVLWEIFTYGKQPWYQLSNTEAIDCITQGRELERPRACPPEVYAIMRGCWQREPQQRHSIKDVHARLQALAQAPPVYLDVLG

| Compound | Activation of TrkA receptor activity ([1]; 1 nM, 2 hours) | Cells rescued [2] | Displacement of 125I-NGF binding [3] | Specific Binding of 125I-NGF ([3]; Pc12, 1 μM) | Concentration range of the effect upon TrkA receptor activity ([1]; 2 hours) | Time required for increase in TrkA activation ([1]; adenosine 10 μM) | Activation of TrkA receptors (tyrosine phosphorylation) ([1]; ligand for 2 hours, adenosine 10 μM) | Specific Binding of 125I-NGF ([3]; Pc12, 1 mM) |
| --- | --- | --- | --- | --- | --- | --- | --- | --- |
| CCNC(=O)[C@H]1O[C@@H](n2cnc3c(N)nc(NCCc4ccc(CCC(=O)O)cc4)nc32)[C@H](O)[C@@H]1O [CGS 21680, 2-[(4-(2-carboxyethyl)phenylethyl)]aminoadenosine-5′-N-ethylcarboxamide] | verified | ~50% | no displacement | 14237 +/− 1055 | – | – | – | – |
| Nc1ncnc2c1ncn2[C@@H]1O[C@H](CO)[C@@H](O)[C@H]1O [adenosine] | – | – | no displacement | – | low nanomolar range; also recorded: low concentration range | at least 90 minutes | Activated TrkA receptors were observed | 14403 +/− 888 |
